Reference: paper PMC10454396 (International Journal of Molecular Sciences, 2023)
Values after ≈ are worked out from the molar mass of the structure shown. Read-outs that look alike come from different tables or passages of the source.

Columns and labels:
[1] = system: Staphylococcus aureus Newman WT; assay: MIC, broth microdilution, S. aureus Newman wild type; assay type: cell-based; conditions: Staphylococcus aureus, NEWMAN
Protocol: Cefazolin was obtained from Acros Organics. Ciprofloxacin hydrochloride, linezolid and vancomycin hydrochloride were obtained from Sigma-Aldrich (St. Louis, MO, USA). Tetracycline hydrochloride was obtained from Alfa Aesar. Sorangicin A was provided by HZI, Braunschweig. Stock solutions were prepared in Milli-Q water or dimethyl sulfoxide (DMSO, Sigma-Aldrich). Minimum inhibitory concentrations (MICs) were determined in cation-adjusted Mueller-Hinton broth (MHB2) using the broth microdilution method as recommended by the Clinical and Laboratory Standards Institute (CLSI). The MIC was defined as the lowest concentration of the antibiotic causing complete inhibition of visible growth of the microorganism (CLSI, 2017).
1. In vitro characterization of mCherry expressing Staphylococcus aureus Newman
1.1 Minimum inhibitory concentration
Table S1. Antibiotic susceptibility profile of Staphylococcus aureus Newman. WT: wild type. […]

S. aureus = system: S. aureus; parameters: method as in unpublished data from GBF; conditions: former in vivo efficacy studies; ref unpublished data from GBF; cited from earlier work
[2] = parameters: method as in unpublished data from GBF; conditions: ref unpublished data from GBF; cited from earlier work
in vitro = in vitro ADME; conditions: read-out: Plasma Stability t1/2
Protocol: To determine stability in plasma, a similar setup as for the determination of metabolic stability was applied using pooled mouse, human or rat plasma (Neo Biotech, Nanterre, France). Samples were taken by mixing aliquots with four volumes of ice cold acetonitrile containing internal standard (12.5 nM diphenhydramine). The plasma stability of procain, propantheline and diltiazem were determined in parallel to confirm the enzymatic activity.

[3] = Plasma protein binding (RED), mouse plasma; assay type: in vitro ADME; conditions: CD-1, mouse, pooled plasma, pH 7.4, mouse plasma
Protocol: Plasma protein binding was determined using the Rapid Equilibrium Dialysis (RED) system (Thermo Fisher Scientific, Waltham, MA, USA). The compound was diluted in pooled murine (CD-1)/human or Wistar rat plasma (Neo Biotech, Nanterre, France) to 10 µM and added to the respective chamber according to the manufacturer’s protocol, followed by addition of PBS pH 7.4 to the opposite chamber. Samples were taken immediately after addition to the plate as well as after 2, 4 and 5 h by mixing 10 µL with 80 µL ice-cold acetonitrile containing 12.5 nM diphenhydramine as internal standard, followed by addition of 10 µL plasma to samples taken from PBS and vice versa. Samples were stored on ice until the end of the incubation and precipitated protein was removed by centrifugation (15 min, 4 °C, 4000× g, 2 centrifugation steps). Concentration of the remaining test compound at the different time points was analyzed by HPLC-MS/MS (TSQ Altis Plus, Thermo Fisher, Dreieich, Germany). The amount of compound bound to protein was calculated using the equation PPB [%] = 100 − 100 × (amount in buffer chamber/amount in plasma chamber).

[4] = In vivo pharmacokinetics in male CD-1 mice, i.v.; parameters: species or system mouse; conditions: 5 mg/kg i.v.
Protocol: Pharmacokinetic evaluation of sorangicin A in mice was carried out by Pharmacelsus GmbH (Saarbrücken, Germany). All mouse experiments were approved by and conducted in accordance with the regulations of the local Animal Welfare authorities. Nine adult male CD-1 mice (purchased from Janvier Labs, Le Genest-Saint-Isle, France) were used. Animals were housed in a separate temperature-controlled room (20–24 °C) and maintained in a 12 h light/12 h dark cycle. […] Retrobulbar blood samples were collected from three animals at 0.083, 0.25, 0.5, 1, 3 and 7 h after i.v. administration (two time points/ animal). At each of the designated time points 100 µL blood was collected from the eye into lithium heparin tubes. Quantification of sorangicin A in the generated plasma was performed by LC-MS/MS analysis. The pharmacokinetic analysis was performed by applying a non-compartment model using the Kinetica 5.0 software (Thermo Scientific, Waltham, MA, USA). All given parameters were obtained by trapezoid area calculation.

## C/C(=C\[C@H](C)CCCCC(=O)O)[C@@H]1O[C@@H]2C=C[C@H]1OC(=O)\C=C/C=C\C=C\[C@H]1O[C@@H]3C[C@H]1O[C@@H](/C=C/C[C@H]1O[C@H](C[C@H](O)[C@H]1C)[C@@H](O)[C@@H](O)/C=C/CC/C=C/C2)[C@@H]3C [sorangicin A]
[1]
  MIC: 0.0625 µg/mL (≈ 0.0774 µM)
S. aureus
  protective effect in mouse models of S. aureus infection: failed to show a protective effect
[2]
  outcome in experimental infection models in rats: successful
In vitro; human plasma
  half-life: > 4 h
In vitro; rat plasma
  half-life at 1 µM: > 4 h
[3]; 10 µM, read-out: PPB (converted)
  fraction unbound at 10 µM: 0.121
[3]; read-out: free fraction
  fraction unbound at 10 µM: > 0.1
[4]
  cZ (last measured blood concentration): 7.2 ng/mL
  time plasma levels maintained above the MIC of S. aureus: less than 30 min
[4]; mouse, plasma, iv
  AUC(0-t): 341 ng·h/mL
[4]; mouse, plasma, iv, read-out: CL (total clearance) (converted)
  clearance: 238 mL/min/kg
[4]; mouse, plasma, iv, read-out: Vz
  Vd: 18 L/kg
[4]; mouse, plasma, iv, read-out: c0 (maximum blood concentration, extrapolated time point zero)
  C0: 1830 ng/mL
[4]; mouse, plasma, iv, read-out: t1/2 (terminal phase) (converted)
  half-life: 0.87 h
